Consider 10 molecules from patent US20170073305A1, “FATTY ACID AMIDES, COMPOSITIONS AND METHODS OF USE” (Catabasis Pharmaceuticals, Inc., priority 2011, published 2017).

For one assay, the system named is NF-κB. The assay is described as follows: NF-κB luciferase reporter assay in RAW 264.7 macrophages. The class given is cell-based. As to conditions: Mus musculus, RAW264.7; RAW 264.7 3×NF-κB luciferase reporter cells, 2 hour pretreatment, 200 ng/ml LPS for 3 hours; read-out: NF-kB inhibitory activity IC50. As for the experimental part: RAW 264.7 cells stably expressing a 3×NF-κB response element-drive luciferase reporter were seeded into 96 well plates in sera-free medium (Optimem) 18 hours prior to compound application. Compounds of the invention were prepared by first making 100 mM stock solutions in EtOH. Stock solutions were then diluted 1:100 in low LPS FBS (Gemini BenchMark 100-106), mixed vigorously and allowed to incubate at room temperature for 30 minutes. 1:2 serial dilutions were then made in FBS supplemented with 1% EtOH, mixed vigorously, and again allowed to incubate at room temperature for 30 minutes before adding to RAW 264.7 reporter cells (final concentrations: 10% FBS, 100 uM highest compound dilution, 0.1% EtOH) for a 2 hour pretreatment prior to stimulation with LPS. Cells were then stimulated with 200 ng/ml LPS or vehicle control for 3 hours in the presence of the compounds of the invention. A set of six vehicles was left unstimulated with LPS in order to measure the assay floor. AlamarBlue viability dye (Invitrogen) was added to cells simultaneously with the delivery of LPS (final AlamarBlue concentration of 10%). After the 3 h incubation period with LPS, cell viability was measured by reading fluorescence (excitation 550 nm, emission 595 nm) with a Perkin Elmer Victor V plate reader. Then cell media was aspirated from each well. Luciferase signal was then developed by addition of the Britelite Plus reagent (Perkin Elmer). Luciferase activity was measured with the Perkin Elmer Victor V plate reader. NF-κB activity was expressed as a percent of the vehicle control wells (stimulated with LPS). Compounds were tested at 6 dose point titrations in triplicate to determine IC50 values. Table 1 summarizes the IC50 values for a number of fatty acid amides in this NF-κB luciferase reporter assay.

For assay [1], the system named is Cystinotic fibroblasts (cell line GM00008, Coriell Cell Repository). The assay is described as follows: cystinotic fibroblast assay (cystine depletion, LC-MS/MS). To be noted: 50 μM, cells incubated 24 hours, cystine by LC-MS/MS, percentage of control (POC). The class given is cell-based. The source says:
Nephropathic cystinosis is an orphan genetic lysosomal storage disorder characterized by a massive accumulation of crystalline cystine within cells. Affected individuals develop a proximal renal tubulopathy and progress, if untreated, to end-stage renal failure. Omran et al (Bioorg. Med. Chem. 2011, p, 3492) described a convenient in vitro system to quickly evaluate compounds that could deplete levels of cystine in cultured fibroblasts. Cystinotic fibroblasts (cell line GM00008, Coriell Cell Repository) were seeded in a 6-well plate and grown in DMEM/15% FBS until confluent. […] Protein quantification was accomplished by dissolving precipitated protein in 0.25 M NaOH and 1 M Tris (pH 7.5), and spectrophotometric measurement using the Bradford method. Compound I-9 was evaluated in this cystinotic fibroblast assay. The level of cystine in this cystinotic cell line was quantitated by LC-MS/MS. […] The level of cystine was expressed as the percentage of control (POC). […] The cystine level was determined as follows: To the 50 μL of supernatant, acetonitrile (400 μL) containing 200 ng/ml Internal standard (deuterated cystine) was added and mixture was vortexed for 1 min followed by centrifugation for 10 minutes. […] The concentration of Cystine was measured by LC-MS/MS. […]

Another assay concerns Hmox1. The assay is described as follows: Hmox1 target gene expression in LPS-stimulated RAW264.7 macrophages. The class given is cell-based. As to conditions: RAW264.7, 1.6-50 μM, 2 hours pre-incubation, 100 ng/ml LPS 3 hours, relative to vehicle only control, FIG. 2. As for the experimental part: RAW264.7 macrophages were seeded at a density of 100,000 cells/well in a 96-well plate in DMEM supplemented with 10% FBS and Penn/strep. 16 hours later, medium was aspirated and replaced with 90 uL/well of serum-free DMEM. Fatty acid amides were brought up in 100% EtOH to a concentration of 100 mM and then diluted 1:100 in 100% FBS for a 20× stock solution consisting of 1 mM compound and 1% EtOH. The fatty acid amide 20× stock solutions were diluted 1:2 in FBS supplemented with 1% EtOH for a 500 uM 10× stock solution. The 10× stock solutions were then serially diluted 1:2 in FBS supplemented with 1% EtOH and 10 μL of each dilution was added to the RAW246.7 cells to generate final concentrations of 50, 25, 12.5, 6.25, 3.12 and 1.6 μM. The compounds were allowed to pre-incubate for 2 hours before stimulation of 100 ng/ml LPS (10 μL of 1 μg/ml LPS is added to each well). Following 3 hours of LPS stimulation, cells were washed once in 1×PBS, aspirated dry, and flash frozen in liquid nitrogen. […] Transcript levels were then measured using ABI Taqman primer/probe assay kits, normalized to GAPDH using the deltaCt method, and the data expressed relative to vehicle only control. FIG. 2 summarizes the Hmox data on compound I-57 (cellular toxicity was assessed using alamar blue as indicator, abbreviated in the figure as AB). […]

In another assay the test system is IL-1β. The assay is described as follows: IL-1β gene expression in LPS-stimulated RAW264.7 macrophages. The class given is cell-based. As to conditions: RAW264.7, 2 hours pre-incubation, 100 ng/ml LPS 3 hours, relative to vehicle only control, FIG. 1. The protocol:
RAW264.7 macrophages were seeded at a density of 100,000 cells/well in a 96-well plate in DMEM supplemented with 10% FBS and Penn/strep. 16 hours later, medium was aspirated and replaced with 90 μL/well of serum-free DMEM. Fatty acid amides were brought up in 100% EtOH to a concentration of 100 mM and then diluted 1:100 in 100% FBS for a stock solution consisting of 1 mM compound and 1% EtOH. These stock solutions were then diluted 1:10 in FBS supplemented with 1% EtOH to generate a 100 μM of the fatty acid amide. 10 μL was then added to the RAW246.7 cells to generate final concentrations 10 μM of the fatty acid amide or 10 μM each DHA and MMF, along with vehicle only control. The compounds were allowed to pre-incubate for 2 hours before stimulation of 100 ng/ml LPS (10 μL of 1 μg/ml LPS was added to each well). Following 3 hours of LPS stimulation, cells were washed once in 1×PBS, aspirated dry, and flash frozen in liquid nitrogen. […] IL-1β transcript levels were then measured using Taqman primer/probe assay sets (Applied Biosystems), normalized to GAPDH using the deltaCt method, and the data expressed relative to vehicle only control. FIG. 1 summarizes the IL-1β gene expression data on compound I-57 (cellular toxicity was assessed using alamar blue as indicator, abbreviated in the figure as AB). […]

In the next assay the test system is mice lacking cystinosin. To be noted: 200 or 400 mg/kg orally for 7, 30 or 60 days, greatest effect in liver and kidney after 60 days; cited from earlier work.

For the molecule `CC/C=C\C/C=C\C/C=C\C/C=C\C/C=C\C/C=C\CCC(=O)O` [DHA, all-cis-4,7,10,13,16,19-docosahexaenoic acid, reference compound], the IC50 in the assay with NF-κB was above 200 µM.
For `CC/C=C\C/C=C\C/C=C\C/C=C\C/C=C\CCCC(=O)O` [EPA, all-cis-5,8,11,14,17-eicosapentaenoic acid, reference compound], the IC50 with NF-κB is above 200 µM.
In the case of `CC/C=C\C/C=C\C/C=C\C/C=C\C/C=C\CCCC(=O)NCCSSCCNC(C)=O` [I-9, (5Z,8Z,11Z,14Z,17Z)-N-(2-((2-acetamidoethyl)disulfanyl)ethyl)icosa-5,8,11,14,17-pentaenamide], the “reduction in the cystine level” value in assay [1] is recorded as 68%.
On to `CC/C=C\C/C=C\C/C=C\C/C=C\C/C=C\C/C=C\CCC(=O)Nc1nc2c(s1)C[C@H](NCCC)CC2` [I-21, (4Z,7Z,10Z,13Z,16Z,19Z)-N-((R)-6-(propylamino)-4,5,6,7-tetrahydrobenzo[d]thiazol-2-yl)docosa-4,7,10,13,16,19-hexaenamide], for which the half-maximal inhibitory concentration (IC50) with NF-κB is below 200 µM.
The same measure, in the same setting: as for `CC/C=C\C/C=C\C/C=C\C/C=C\C/C=C\C/C=C\CCC(=O)N[C@@H](C)C(=O)N[C@@H]1[C@@H](O)[C@H](O)[C@@H](CO)O[C@H]1O` [I-47, (4Z,7Z,10Z,13Z,16Z,19Z)-N-((S)-1-oxo-1-(((2R,3R,4R,5S,6R)-2,4,5-trihydroxy-6-(hydroxymethyl)tetrahydro-2H-pyran-3-yl)amino)propan-2-yl)docosa-4,7,10,13,16,19-hexaenamide], the figure is above 200 µM; as for `CC/C=C\C/C=C\C/C=C\C/C=C\C/C=C\C/C=C\CCC(=O)N[C@H](C(=O)N[C@@H]1[C@@H](O)[C@H](O)[C@@H](CO)O[C@H]1O)C(C)C` [I-48, (4Z,7Z,10Z,13Z,16Z,19Z)-N-((S)-3-methyl-1-oxo-1-(((2R,3R,4R,5S,6R)-2,4,5-trihydroxy-6-(hydroxymethyl)tetrahydro-2H-pyran-3-yl)amino)butan-2-yl)docosa-4,7,10,13,16,19-hexaenamide], below 50 µM; as for `CC/C=C\C/C=C\C/C=C\C/C=C\C/C=C\C/C=C\CCC(=O)N[C@@H](CC(C)C)C(=O)N[C@@H]1[C@@H](O)[C@H](O)[C@@H](CO)O[C@H]1O` [I-49, (4Z,7Z,10Z,13Z,16Z,19Z)-N-((S)-4-methyl-1-oxo-1-(((2R,3R,4R,5S,6R)-2,4,5-trihydroxy-6-(hydroxymethyl)tetrahydro-2H-pyran-3-yl)amino)pentan-2-yl)docosa-4,7,10,13,16,19-hexaenamide], below 50 µM.
`CC/C=C\C/C=C\C/C=C\C/C=C\C/C=C\C/C=C\CCC(=O)NCCOCCOCCOC` [I-52, (4Z,7Z,10Z,13Z,16Z,19Z)-N-(2-(2-(2-methoxyethoxy)ethoxy)ethyl)docosa-4,7,10,13,16,19-hexaenamide]: the IC50 with NF-κB is below 50 µM.
`CC/C=C\C/C=C\C/C=C\C/C=C\C/C=C\CCCC(=O)NCCOCCOCCOC` [I-57, (5Z,8Z,11Z,14Z,17Z)-N-(2-(2-(2-methoxyethoxy)ethoxy)ethyl)icosa-5,8,11,14,17-pentaenamide]: the Hmox gene expression result in the assay on Hmox1 is given as “upregulation”. Besides, the IC50 in the assay on NF-κB was below 50 µM. The IL-1β gene expression entry in the assay on IL-1β is listed as “decrease”.
In the case of `NCCS` [cysteamine, reference compound], the “reduction in the cystine level” value in assay [1] turned out to be 45%. In the assay with mice lacking cystinosin, the “cystine levels of tissues” value was “reduce cystine levels of all tissues tested”.
